Results taken from PubChem BioAssay AID1919006 (Molecular Pharmacology Branch, DTP, NCI, 2023).

System: 885512-296-R-J2-PDC complex spheroid growth, % test/control
Assay: Anticancer human tumor 885512-296-R-J2-PDC patient-derived breast carcinoma cell line growth inhibition [AhR]
Conditions: for IC50: curve of first compound; for viability, T/C: stronger effect = lower value
In short: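 Agents were dosed in half-log steps down from roughly clinical Cmax, or from 10 microM where Cmax was unknown, alone and with AhR antagonists. Read-out: percent test/control growth of tumor spheroids containing HUVEC and MSC stromal cells.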

[1] = second compound 0.1 µM, first compound 0.0316 µM
[2] = second compound 0.1 µM, first compound 0.1 µM
[3] = second compound 0.1 µM, first compound 0.316 µM
[4] = second compound 0.1 µM, first compound 1 µM
[5] = second compound 0.1 µM, first compound 3.16 µM
[6] = second compound 0.1 µM, first compound 10 µM
[7] = second compound 0.316 µM, first compound 0.0316 µM
[8] = second compound 0.316 µM, first compound 0.1 µM
[9] = second compound 0.316 µM, first compound 0.316 µM
[10] = second compound 0.316 µM, first compound 1 µM
[11] = second compound 0.316 µM, first compound 3.16 µM
[12] = second compound 0.316 µM, first compound 10 µM
[13] = second compound 1 µM, first compound 0.0316 µM
[14] = second compound 1 µM, first compound 0.1 µM
[15] = second compound 1 µM, first compound 0.316 µM
[16] = second compound 1 µM, first compound 1 µM
[17] = second compound 1 µM, first compound 3.16 µM
[18] = second compound 1 µM, first compound 10 µM
[19] = second compound 3.16 µM, first compound 0.0316 µM
[20] = second compound 3.16 µM, first compound 0.1 µM
[21] = second compound 3.16 µM, first compound 0.316 µM
[22] = second compound 3.16 µM, first compound 1 µM
[23] = second compound 3.16 µM, first compound 3.16 µM
[24] = second compound 3.16 µM, first compound 10 µM
[25] = second compound 10 µM, first compound 0.0316 µM
[26] = second compound 10 µM, first compound 0.1 µM
[27] = second compound 10 µM, first compound 0.316 µM
[28] = second compound 10 µM, first compound 1 µM
[29] = second compound 10 µM, first compound 3.16 µM
[30] = second compound 10 µM, first compound 10 µM
[31] = second compound 0.1 µM, first compound 0.00949 µM
[32] = second compound 0.1 µM, first compound 0.03 µM
[33] = second compound 0.1 µM, first compound 0.0949 µM
[34] = second compound 0.1 µM, first compound 0.3 µM
[35] = second compound 0.316 µM, first compound 0.00949 µM
[36] = second compound 0.316 µM, first compound 0.03 µM
[37] = second compound 0.316 µM, first compound 0.0949 µM
[38] = second compound 0.316 µM, first compound 0.3 µM
[39] = second compound 1 µM, first compound 0.00949 µM
[40] = second compound 1 µM, first compound 0.03 µM
[41] = second compound 1 µM, first compound 0.0949 µM
[42] = second compound 1 µM, first compound 0.3 µM
[43] = second compound 3.16 µM, first compound 0.00949 µM
[44] = second compound 3.16 µM, first compound 0.03 µM
[45] = second compound 3.16 µM, first compound 0.0949 µM
[46] = second compound 3.16 µM, first compound 0.3 µM
[47] = second compound 10 µM, first compound 0.00949 µM
[48] = second compound 10 µM, first compound 0.03 µM
[49] = second compound 10 µM, first compound 0.0949 µM
[50] = second compound 10 µM, first compound 0.3 µM
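Note: spheroids exposed to compounds for seven days.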

In the case of `CC1(C)CCC(CN2CCN(c3ccc(C(=O)NS(=O)(=O)c4ccc(NCC5CCOCC5)c([N+](=O)[O-])c4)c(Oc4cnc5[nH]ccc5c4)c3)CC2)=C(c2ccc(Cl)cc2)C1` + CC(CO)NC(=O)c1cc(-c2ccc(Cl)cc2)nn(-c2cnn(C)c2)c1=O, the IC50 (second compound 0.1 µM) is reported as 6.34 µM, the IC50 (second compound 0.316 µM) is reported as 7.19 µM and the IC50 (second compound 1 µM) is reported as 7.58 µM. It also gave an IC50 (second compound 3.16 µM) of 7.84 µM, an IC50 (second compound 10 µM) of 8.44 µM and a viability, T/C [1] of 111%. For the same molecule, the viability, T/C [2] was 105%, the viability, T/C [3] was 102% and the viability, T/C [4] was 91.7%. The viability, T/C [5] was 70.7%, the viability, T/C [6] was 36.4% and the viability, T/C [7] was 96.3%. For the same molecule, the viability, T/C [8] was 111%, the viability, T/C [9] was 100% and the viability, T/C [10] was 96.5%. The viability, T/C [11] was 70.6%, the viability, T/C [12] was 41.7% and the viability, T/C [13] was 96.7%. The viability, T/C [14] was 108%, the viability, T/C [15] was 112% and the viability, T/C [16] was 99.7%. For the same molecule, the viability, T/C [17] was 78.6%, the viability, T/C [18] was 41% and the viability, T/C [19] was 102%. The viability, T/C [20] was 118%, the viability, T/C [21] was 103% and the viability, T/C [22] was 100%. It also gave a viability, T/C [23] of 81.5%, a viability, T/C [24] of 41.6% and a viability, T/C [25] of 106%. For the same molecule, the viability, T/C [26] was 99.4%, the viability, T/C [27] was 103% and the viability, T/C [28] was 103%. It also gave a viability, T/C [29] of 90.8% and a viability, T/C [30] of 42.6%.

`CC1COCCN1c1cc(C2(S(C)(=N)=O)CC2)nc(-c2ccnc3[nH]ccc23)n1` (stereo not given) + CC(CO)NC(=O)c1cc(-c2ccc(Cl)cc2)nn(-c2cnn(C)c2)c1=O gave an IC50 (second compound 0.1 µM) of 1.68 µM, an IC50 (second compound 0.316 µM) of 1.8 µM and an IC50 (second compound 1 µM) of 1.55 µM. For the same molecule, the IC50 (second compound 3.16 µM) was 1.14 µM, the IC50 (second compound 10 µM) was 0.671 µM and the viability, T/C [1] was 102%. For the same molecule, the viability, T/C [2] was 96.4%, the viability, T/C [3] was 87% and the viability, T/C [4] was 76%. It also gave a viability, T/C [5] of 19.1%, a viability, T/C [6] of 5.46% and a viability, T/C [7] of 95.1%. The viability, T/C [8] was 102%, the viability, T/C [9] was 94.2% and the viability, T/C [10] was 84.4%. The viability, T/C [11] was 17.1%, the viability, T/C [12] was 4.07% and the viability, T/C [13] was 100%. The viability, T/C [14] was 97%, the viability, T/C [15] was 99% and the viability, T/C [16] was 70.3%. For the same molecule, the viability, T/C [17] was 16.7%, the viability, T/C [18] was 5.36% and the viability, T/C [19] was 89.4%. For the same molecule, the viability, T/C [20] was 83.5%, the viability, T/C [21] was 82.8% and the viability, T/C [22] was 55.1%. For the same molecule, the viability, T/C [23] was 11.1%, the viability, T/C [24] was 4.04% and the viability, T/C [25] was 96.9%. It also gave a viability, T/C [26] of 95.3%, a viability, T/C [27] of 72.6% and a viability, T/C [28] of 38.3%. For the same molecule, the viability, T/C [29] was 11.3% and the viability, T/C [30] was 4.98%.

With `CCN(c1cc(-c2ccc(CN3CCOCC3)cc2)cc(C(=O)NCc2c(C)cc(C)[nH]c2=O)c1C)C1CCOCC1` + CC(CO)NC(=O)c1cc(-c2ccc(Cl)cc2)nn(-c2cnn(C)c2)c1=O the IC50 (second compound 0.1 µM) was > 3 µM, the IC50 (second compound 0.316 µM) was > 3 µM and the IC50 (second compound 1 µM) was > 3 µM. For the same molecule, the IC50 (second compound 3.16 µM) was > 3 µM, the IC50 (second compound 10 µM) was > 3 µM and the viability, T/C [31] was 105%. It also gave a viability, T/C [32] of 96.8%, a viability, T/C [33] of 83.3% and a viability, T/C [34] of 79.6%. For the same molecule, the viability, T/C (second compound 0.1 µM, first compound 0.949 µM) was 74.9%, the viability, T/C (second compound 0.1 µM, first compound 3 µM) was 84.1% and the viability, T/C [35] was 106%. It also gave a viability, T/C [36] of 102%, a viability, T/C [37] of 93% and a viability, T/C [38] of 78.9%. For the same molecule, the viability, T/C (second compound 0.316 µM, first compound 0.949 µM) was 70.5%, the viability, T/C (second compound 0.316 µM, first compound 3 µM) was 69.1% and the viability, T/C [39] was 88.8%. For the same molecule, the viability, T/C [40] was 111%, the viability, T/C [41] was 93.3% and the viability, T/C [42] was 82%. For the same molecule, the viability, T/C (second compound 1 µM, first compound 0.949 µM) was 80.3%, the viability, T/C (second compound 1 µM, first compound 3 µM) was 80.9% and the viability, T/C [43] was 88.3%. The viability, T/C [44] was 90.3%, the viability, T/C [45] was 82.9% and the viability, T/C [46] was 86.7%. It also gave a viability, T/C (second compound 3.16 µM, first compound 0.949 µM) of 71.4%, a viability, T/C (second compound 3.16 µM, first compound 3 µM) of 78.2% and a viability, T/C [47] of 94.4%. For the same molecule, the viability, T/C [48] was 97.5%, the viability, T/C [49] was 88% and the viability, T/C [50] was 86.4%. For the same molecule, the viability, T/C (second compound 10 µM, first compound 0.949 µM) was 68.5% and the viability, T/C (second compound 10 µM, first compound 3 µM) was 71.7%.

With `Nc1ncn(C2CC(O)C(CO)S2)c(=O)n1` (stereo not given) + CC(CO)NC(=O)c1cc(-c2ccc(Cl)cc2)nn(-c2cnn(C)c2)c1=O the IC50 (second compound 0.1 µM) was 0.273 µM, the IC50 (second compound 0.316 µM) was > 0.3 µM and the IC50 (second compound 1 µM) was > 0.3 µM. The IC50 (second compound 3.16 µM) was 0.234 µM, the IC50 (second compound 10 µM) was 0.274 µM and the viability, T/C (second compound 0.1 µM, first compound 0.000949 µM) was 98.8%. It also gave a viability, T/C (second compound 0.1 µM, first compound 0.003 µM) of 117%, a viability, T/C [31] of 108% and a viability, T/C [32] of 125%. For the same molecule, the viability, T/C [33] was 77%, the viability, T/C [34] was 47.5% and the viability, T/C (second compound 0.316 µM, first compound 0.000949 µM) was 106%. The viability, T/C (second compound 0.316 µM, first compound 0.003 µM) was 92.9%, the viability, T/C [35] was 146% and the viability, T/C [36] was 111%. For the same molecule, the viability, T/C [37] was 80.5%, the viability, T/C [38] was 54.2% and the viability, T/C (second compound 1 µM, first compound 0.000949 µM) was 106%. For the same molecule, the viability, T/C (second compound 1 µM, first compound 0.003 µM) was 104%, the viability, T/C [39] was 113% and the viability, T/C [40] was 127%. It also gave a viability, T/C [41] of 81.4%, a viability, T/C [42] of 54.1% and a viability, T/C (second compound 3.16 µM, first compound 0.000949 µM) of 97.9%. The viability, T/C (second compound 3.16 µM, first compound 0.003 µM) was 101%, the viability, T/C [43] was 112% and the viability, T/C [44] was 87.2%. For the same molecule, the viability, T/C [45] was 72.2%, the viability, T/C [46] was 43.9% and the viability, T/C (second compound 10 µM, first compound 0.000949 µM) was 101%. The viability, T/C (second compound 10 µM, first compound 0.003 µM) was 96.3%, the viability, T/C [47] was 100% and the viability, T/C [48] was 93.1%. For the same molecule, the viability, T/C [49] was 70.8% and the viability, T/C [50] was 48.2%.
